Here are results for 3 compounds from patent US6872730B2, “Substituted benzofurans and benzothiophenes, methods of making and methods of use as integrin antagonists” (3-Dimensional Pharmaceuticals, Inc., priority 2001, dated 2005).

For this experiment, the target named is T1, human αvβ3 (Homo sapiens, UniProt P05106+P06756).
T1 construct: purchased Chemicon CC1019
T1 sequence (P06756 31-889 limits assumed): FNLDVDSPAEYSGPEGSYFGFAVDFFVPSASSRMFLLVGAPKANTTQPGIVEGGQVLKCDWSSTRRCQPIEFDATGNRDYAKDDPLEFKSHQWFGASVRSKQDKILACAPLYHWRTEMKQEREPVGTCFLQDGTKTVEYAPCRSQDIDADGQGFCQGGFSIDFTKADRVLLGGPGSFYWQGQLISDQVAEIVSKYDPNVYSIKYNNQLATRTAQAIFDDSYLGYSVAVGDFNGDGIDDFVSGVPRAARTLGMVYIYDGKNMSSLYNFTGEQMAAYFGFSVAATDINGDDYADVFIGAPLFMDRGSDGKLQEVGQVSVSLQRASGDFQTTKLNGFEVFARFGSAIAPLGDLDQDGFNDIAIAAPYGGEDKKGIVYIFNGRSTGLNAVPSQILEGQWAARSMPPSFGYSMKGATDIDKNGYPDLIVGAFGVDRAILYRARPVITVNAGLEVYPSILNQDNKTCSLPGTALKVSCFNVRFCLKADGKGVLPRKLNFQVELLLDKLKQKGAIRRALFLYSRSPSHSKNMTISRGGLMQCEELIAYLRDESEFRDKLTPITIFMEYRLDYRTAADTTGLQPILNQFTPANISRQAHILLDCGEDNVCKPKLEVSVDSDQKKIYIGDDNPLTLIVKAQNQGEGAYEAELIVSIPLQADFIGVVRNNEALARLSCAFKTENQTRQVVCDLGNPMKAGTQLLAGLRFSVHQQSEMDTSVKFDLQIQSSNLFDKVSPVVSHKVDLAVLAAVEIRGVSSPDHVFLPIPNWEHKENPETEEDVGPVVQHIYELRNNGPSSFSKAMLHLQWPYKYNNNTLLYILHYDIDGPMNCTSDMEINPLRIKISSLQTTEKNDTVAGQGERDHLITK
T1 sequence (P06756 891-1048 partner limits assumed): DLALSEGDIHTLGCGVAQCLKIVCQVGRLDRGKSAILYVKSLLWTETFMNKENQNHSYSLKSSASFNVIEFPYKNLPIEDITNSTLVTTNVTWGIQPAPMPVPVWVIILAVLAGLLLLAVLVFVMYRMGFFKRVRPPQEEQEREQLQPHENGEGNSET
T1 sequence (P05106 27-788): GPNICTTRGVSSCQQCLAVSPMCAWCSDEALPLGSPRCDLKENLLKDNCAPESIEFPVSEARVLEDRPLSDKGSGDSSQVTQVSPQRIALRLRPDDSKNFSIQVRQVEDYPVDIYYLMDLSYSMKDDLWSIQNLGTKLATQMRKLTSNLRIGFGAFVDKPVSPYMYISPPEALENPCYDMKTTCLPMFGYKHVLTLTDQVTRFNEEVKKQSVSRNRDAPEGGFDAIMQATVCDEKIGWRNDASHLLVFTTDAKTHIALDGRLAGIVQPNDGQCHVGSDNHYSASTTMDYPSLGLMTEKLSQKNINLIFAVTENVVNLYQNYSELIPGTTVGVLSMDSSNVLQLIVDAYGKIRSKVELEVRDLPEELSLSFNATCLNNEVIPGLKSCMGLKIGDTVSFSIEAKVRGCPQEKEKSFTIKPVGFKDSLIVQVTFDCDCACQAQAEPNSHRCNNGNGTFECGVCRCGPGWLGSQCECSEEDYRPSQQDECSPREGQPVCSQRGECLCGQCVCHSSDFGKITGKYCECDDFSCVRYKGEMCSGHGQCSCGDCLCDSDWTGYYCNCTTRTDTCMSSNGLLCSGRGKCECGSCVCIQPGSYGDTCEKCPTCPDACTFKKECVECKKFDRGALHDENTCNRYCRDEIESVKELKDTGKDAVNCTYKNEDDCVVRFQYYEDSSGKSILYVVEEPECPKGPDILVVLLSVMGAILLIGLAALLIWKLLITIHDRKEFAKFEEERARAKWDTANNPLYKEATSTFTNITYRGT
Kind of experiment: αvβ3-vitronectin assay. Particulars: ELISA plate coated with human αvβ3, biotinylated human vitronectin, room temperature; read-out: IC50 for inhibition of the αvβ3-vitronectin interaction. It is filed as binding. The procedure: The assay is based on the method of Dennis (Dennis, M. S., et al., Proteins 15: 312-321 (1993)). Costar 9018 flat-bottom 96-well ELISA plates were coated overnight at 4° C. with 100 μL/well of 10 μg/mL human fibrinogen (Calbiochem 341578) in 20 mM Tris-HCl pH 7.5, 150 mM NaCl, 2 mM CaCl2, 0.02% NaN3 (TAC buffer), and blocked for 1 hr at 37° C. with 150 μL/well of TAC buffer containing 0.05% Tween 20 and 1% bovine serum albumin (TACTB buffer). After washing 3 times with 200 μL/well of 10 mM Na2 HPO4 pH 7.5, 150 mM NaCl, 0.01% Tween 20 (PBST buffer), controls or test compound (0.027-20.0 μM) were mixed with 40 μg/mL human GPIIbIIIa (Enzyme Research Laboratories) in TACTB buffer, and 100 μL/well of these solutions were incubated for 1 hr at 37° C. The plate was then washed 5 times with PBST buffer, and 100 μL/well of a monoclonal anti-GPIIbIIIa antibody in TACTB buffer (1 μg/mL, Enzyme Research Laboratories MabGP2b3a) was incubated at 37° C. for 1 hr. After washing (5 times with PBST buffer), 100 μL /well of goat anti-mouse IgG conjugated to horseradish peroxidase (Kirkegaard & Perry 14-23-06) was incubated at 37° C. for 1 hr (25 ng/mL in PBST buffer), followed by a 6-fold PBST buffer wash. The plate was developed by adding 100 μL/well of 0.67 mg o-phenylenediamine dihydrochloride per mL of 0.012% H2O2, 22 mM sodium citrate, 50 mM sodium phosphate, pH 5.0 at room temperature. The reaction was stopped with 50 μL/well of 2M H2SO4, and the absorbence at 492 nm was recorded. Percent (%) inhibition was calculated from the average of three separate determinations relative to buffer controls (no test compound added), and a four parameter fit (Marquardt, D. W., J. Soc. Indust. Appl. Math. 11:431-441 (1963)) was used to estimate the half maximal inhibition concentration (IC50).
The assay was based on the method of Niiya (Niiya, K., et al., Blood 70:475-483 (1987)). […] Following a 5-fold PBST buffer wash, the plate was developed and results were calculated as described for the fibrinogen-IIbIIIa assay.
One may read the IC50 as the concentration at which inhibition is half-maximal. As for `CNc1cccc(CCOc2ccc3c(CCC(=O)O)csc3c2)n1` [Example 1, 3-(6-{2-[6-(methylamino)-2-pyridyl]ethoxy}benzo [b]thiophen-3-yl)propanoic acid], the IC50 was determined as 30 nM.
With `O=C(O)CCc1csc2cc(OCCc3ccc4c(n3)NCCC4)ccc12` [Example 2, 3-{6-[2-(5,6,7,8-Tetrahydro-[1,8]naphthyridin-2-yl)-ethoxy]-benzo[b]thiophen-3-yl}-propionic acid] the figure was 8 nM.
With `CNc1cccc(CCOc2ccc3c(CCC(=O)O)coc3c2)n1` [Example 3, 3-(6-{2-[6-(Methylamino)-2-pyridyl]ethoxy}benzo[b]furan-3-yl)propanoic acid] the figure was 33 nM.
